Data: US20230074252A1, “DOSAGES AND METHODS FOR TREATING PULMONARY ARTERIAL HYPERTENSION WITH RODATRISTAT” (Altavant Sciences GmbH, priority 2020, published 2023)

How the values were obtained:
CYP2B6 = molecular target: T1, CYP2B6 (Homo sapiens, UniProt P20813); assay: FDA guidance DDI risk assessment, perpetrator potential; design: from tissue; host or cells: pooled human liver microsomes (n=200 donors); settings: predicted @ 600 mg BID
T1 sequence (P20813 1-491): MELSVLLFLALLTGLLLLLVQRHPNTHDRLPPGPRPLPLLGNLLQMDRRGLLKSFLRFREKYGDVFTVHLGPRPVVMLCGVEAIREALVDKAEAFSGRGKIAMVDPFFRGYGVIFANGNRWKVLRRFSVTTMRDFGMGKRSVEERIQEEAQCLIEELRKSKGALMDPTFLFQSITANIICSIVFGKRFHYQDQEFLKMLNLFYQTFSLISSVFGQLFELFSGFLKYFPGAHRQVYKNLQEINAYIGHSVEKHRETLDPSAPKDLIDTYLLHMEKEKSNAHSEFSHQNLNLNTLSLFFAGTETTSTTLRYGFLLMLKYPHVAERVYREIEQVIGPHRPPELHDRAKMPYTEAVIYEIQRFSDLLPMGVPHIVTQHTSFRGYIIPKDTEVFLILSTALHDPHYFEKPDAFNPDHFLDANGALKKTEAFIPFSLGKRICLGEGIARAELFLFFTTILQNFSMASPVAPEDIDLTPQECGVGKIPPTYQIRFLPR
Protocol: (§1) The potential for rodatristat ethyl or rodatristat to be perpetrators of drug-drug interactions was assessed across in vitro CYP and transporter studies (Tables 1-4). […] This analysis was performed to assess the potential for clinically meaningful DDIs as recommended in FDA Draft Guidance: “In Vitro Metabolism- and Transporter-Mediated Drug-Drug Interaction Studies Guidance for Industry”; October 2017 (FDA, 2017).
(§2) R1 and R3 values using free (non-protein bound) drug levels were calculated based on plasma protein binding (fraction bound, fb) of rodatristat ethyl (0.995) and rodatristat (0.991). The FDA Guidance is set forth In Vitro Metabolism- and Transporter-Mediated Drug-Drug Interaction Studies Guidance for Industry (2017). […] Parameters for the prediction are set forth below in Tables 5 and 6.

CYP2C9 = CYP2C9 (Homo sapiens, UniProt P11712); assay: as above; design: from tissue; host or cells: pooled human liver microsomes (n=200 donors); settings: predicted @ 600 mg BID
Sequence of CYP2C9 (P11712 whole entry): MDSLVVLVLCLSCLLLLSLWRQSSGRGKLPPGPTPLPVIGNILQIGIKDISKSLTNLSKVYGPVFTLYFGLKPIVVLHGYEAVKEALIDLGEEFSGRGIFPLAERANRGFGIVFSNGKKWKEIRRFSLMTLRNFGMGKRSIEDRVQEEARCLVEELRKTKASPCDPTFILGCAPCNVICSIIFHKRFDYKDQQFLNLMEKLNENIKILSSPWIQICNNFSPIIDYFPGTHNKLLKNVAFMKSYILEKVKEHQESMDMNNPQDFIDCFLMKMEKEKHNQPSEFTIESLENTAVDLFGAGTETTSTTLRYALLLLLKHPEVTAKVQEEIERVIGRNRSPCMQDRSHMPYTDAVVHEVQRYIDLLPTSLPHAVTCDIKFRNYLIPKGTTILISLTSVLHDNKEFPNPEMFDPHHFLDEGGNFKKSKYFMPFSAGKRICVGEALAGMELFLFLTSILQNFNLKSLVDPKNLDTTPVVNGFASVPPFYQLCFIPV
Protocol: as §1, §2

CYP2C8 = molecular target: T2, CYP2C8 (Homo sapiens, UniProt P10632); assay: as above; design: from tissue; host or cells: pooled human liver microsomes (n=200 donors); settings: for Potential for interaction (perpetrator), CYP2C8: predicted @ 600 mg BID
T2 sequence (P10632 1-490): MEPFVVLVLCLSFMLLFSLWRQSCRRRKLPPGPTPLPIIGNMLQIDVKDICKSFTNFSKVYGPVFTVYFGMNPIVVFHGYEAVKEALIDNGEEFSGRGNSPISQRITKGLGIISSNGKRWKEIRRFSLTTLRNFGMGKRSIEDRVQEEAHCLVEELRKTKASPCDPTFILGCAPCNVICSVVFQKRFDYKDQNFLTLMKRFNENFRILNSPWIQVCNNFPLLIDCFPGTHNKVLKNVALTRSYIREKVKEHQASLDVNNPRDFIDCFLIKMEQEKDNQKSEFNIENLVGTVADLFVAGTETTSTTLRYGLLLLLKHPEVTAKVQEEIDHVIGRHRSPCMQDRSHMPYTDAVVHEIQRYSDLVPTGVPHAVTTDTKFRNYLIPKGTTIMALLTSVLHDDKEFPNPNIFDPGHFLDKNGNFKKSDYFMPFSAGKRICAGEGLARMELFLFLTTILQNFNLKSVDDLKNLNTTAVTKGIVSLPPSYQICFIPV
Protocol: as §1, §2

CYP1A2 = molecular target: T3, CYP1A2 (Homo sapiens, UniProt P05177); assay: as above; design: from tissue; host or cells: pooled human liver microsomes (n=200 donors); settings: predicted @ 600 mg BID
T3 sequence (P05177 1-516): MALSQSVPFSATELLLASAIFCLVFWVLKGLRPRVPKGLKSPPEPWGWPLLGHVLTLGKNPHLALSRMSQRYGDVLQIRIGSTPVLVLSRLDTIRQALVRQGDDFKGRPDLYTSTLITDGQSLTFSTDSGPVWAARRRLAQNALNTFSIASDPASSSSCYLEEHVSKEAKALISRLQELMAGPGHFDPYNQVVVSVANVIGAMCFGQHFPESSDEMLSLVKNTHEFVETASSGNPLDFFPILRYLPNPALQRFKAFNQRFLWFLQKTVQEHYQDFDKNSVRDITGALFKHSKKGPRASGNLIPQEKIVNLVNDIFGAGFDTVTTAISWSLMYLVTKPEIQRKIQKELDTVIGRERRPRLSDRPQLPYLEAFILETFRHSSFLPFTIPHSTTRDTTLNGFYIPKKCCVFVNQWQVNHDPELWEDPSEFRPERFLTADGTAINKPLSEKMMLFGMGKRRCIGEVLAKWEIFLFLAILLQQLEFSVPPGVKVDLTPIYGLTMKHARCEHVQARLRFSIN
Protocol: as §1, §2

CYP2D6 = CYP2D6 (Homo sapiens, UniProt P10635); assay: as above; design: from tissue; host or cells: pooled human liver microsomes (n=200 donors); settings: predicted @ 600 mg BID
Sequence of CYP2D6 (P10635 whole entry): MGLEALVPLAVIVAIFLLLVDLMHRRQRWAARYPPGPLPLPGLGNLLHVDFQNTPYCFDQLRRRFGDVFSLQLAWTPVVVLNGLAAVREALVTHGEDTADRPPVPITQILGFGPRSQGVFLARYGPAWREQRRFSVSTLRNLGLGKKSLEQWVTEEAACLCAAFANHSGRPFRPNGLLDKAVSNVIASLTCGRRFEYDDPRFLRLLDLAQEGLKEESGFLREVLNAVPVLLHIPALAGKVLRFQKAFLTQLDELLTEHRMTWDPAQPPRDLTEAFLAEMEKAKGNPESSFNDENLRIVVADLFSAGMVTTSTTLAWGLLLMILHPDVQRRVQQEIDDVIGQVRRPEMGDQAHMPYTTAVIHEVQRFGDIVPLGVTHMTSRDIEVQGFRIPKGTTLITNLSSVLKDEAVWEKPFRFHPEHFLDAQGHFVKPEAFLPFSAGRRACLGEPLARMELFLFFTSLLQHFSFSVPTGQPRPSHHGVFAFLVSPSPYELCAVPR
Protocol: as §1, §2

OATP1B1 = molecular target: T4, OATP1B1 (Homo sapiens, UniProt Q9Y6L6); assay: In vitro transporter substrate assessment; format: in vitro ADME
T4 construct: expressed in transfected cells; host or cells: HEK293
T4 sequence (Q9Y6L6 1-691): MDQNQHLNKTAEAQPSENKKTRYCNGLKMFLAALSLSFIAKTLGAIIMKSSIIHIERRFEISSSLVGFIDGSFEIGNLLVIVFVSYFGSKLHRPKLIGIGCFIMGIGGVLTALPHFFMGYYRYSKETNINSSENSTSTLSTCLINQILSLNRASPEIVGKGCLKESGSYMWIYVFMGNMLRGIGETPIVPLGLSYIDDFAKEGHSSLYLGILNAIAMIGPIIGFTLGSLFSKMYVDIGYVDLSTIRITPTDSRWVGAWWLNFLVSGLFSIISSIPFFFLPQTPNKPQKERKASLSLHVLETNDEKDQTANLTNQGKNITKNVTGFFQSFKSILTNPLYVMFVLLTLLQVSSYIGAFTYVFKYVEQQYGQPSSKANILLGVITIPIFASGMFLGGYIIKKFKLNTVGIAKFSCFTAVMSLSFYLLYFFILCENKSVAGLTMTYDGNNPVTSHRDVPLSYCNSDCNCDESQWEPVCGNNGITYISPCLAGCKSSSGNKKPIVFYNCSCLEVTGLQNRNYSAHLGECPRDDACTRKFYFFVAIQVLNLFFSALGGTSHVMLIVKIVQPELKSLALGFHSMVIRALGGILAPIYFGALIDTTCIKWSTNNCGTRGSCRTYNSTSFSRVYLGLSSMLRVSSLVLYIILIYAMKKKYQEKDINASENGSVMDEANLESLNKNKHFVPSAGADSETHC

Potential for interaction (perpetrator), CYP2B6 (CYP2B6) | Potential for interaction (perpetrator), CYP2C9 (CYP2C9) | Potential for interaction (perpetrator), CYP2C8 (CYP2C8) | Potential for interaction (perpetrator), CYP1A2 (CYP1A2) | Potential for interaction (perpetrator), CYP2D6 (CYP2D6) | In vitro substrate? OATP1B1 (OATP1B1) | Ratio of unbound Cmax to Ki, CYP2C8 (CYP2C8; 600 mg BID) | Accumulation by OATP1B1 uptake transporter (OATP1B1; 3 μM) [fold] | SMILES
Yes | No | No | No | No | not a substrate and No | – | – | CCOC(=O)[C@@H]1CC2(CCN(c3cc(O[C@H](c4ccc(Cl)cc4-c4ccccc4)C(F)(F)F)nc(N)n3)CC2)CN1 [Rodatristat ethyl, (S)-ethyl 8-(2-amino-6-((R)-1-(5-chloro-[1,1′-biphenyl]-2-yl)-2,2,2-trifluoroethoxy)pyrimidin-4-yl)-2,8-diazaspiro[4.5]decane-3-carboxylate]
Yes | No | No | No | No | is an in vitro substrate and Yes | 0.014 | 2.22 | Nc1nc(O[C@H](c2ccc(Cl)cc2-c2ccccc2)C(F)(F)F)cc(N2CCC3(CC2)CN[C@H](C(=O)O)C3)n1 [Rodatristat, (S)-8-(2-amino-6-((R)-1-(5-chloro-[1,1′-biphenyl]-2-yl)-2,2,2-trifluoroeth-oxy)pyrimidin-4-yl)-2,8-diazaspiro[4.5]decane-3-carboxylic acid]
